{
  "source": "paper PMC6106730",
  "about": "“The hemicellulose-degrading enzyme system of the thermophilic bacterium Clostridium stercorarium: comparative characterisation and addition of new hemicellulolytic glycoside hydrolases” (Biotechnology for Biofuels, 2018)",
  "key": {"Xyn105F": {"target": "T1, Xyn105F (Thermoclostridium stercorarium, UniProt L7VMZ8)", "T1 construct": "gene Cst_c10410; no signal peptide predicted; C-terminal His6 tag, pET-24c(+), E. coli BL21 Star; IMAC and heat step", "T1 sequence (L7VMZ8 entry or part of it)": "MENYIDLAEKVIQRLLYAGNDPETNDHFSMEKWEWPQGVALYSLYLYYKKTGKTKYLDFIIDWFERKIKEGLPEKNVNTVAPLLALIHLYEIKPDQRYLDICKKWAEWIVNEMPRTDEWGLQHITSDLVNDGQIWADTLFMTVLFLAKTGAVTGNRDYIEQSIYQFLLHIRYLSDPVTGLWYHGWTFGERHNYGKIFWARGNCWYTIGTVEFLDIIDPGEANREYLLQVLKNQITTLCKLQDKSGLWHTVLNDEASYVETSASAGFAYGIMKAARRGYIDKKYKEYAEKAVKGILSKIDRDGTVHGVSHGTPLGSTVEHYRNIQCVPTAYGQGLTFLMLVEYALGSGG", "assay": "HPAEC-PAD of hydrolysis products", "assay_type": "biochemical", "details": "20 mg/L oligosaccharide, 2 mg/L enzyme, overnight, 60 °C, pH 6.5"}, "Xyn10D": {"target": "T2, Xyn10D (Thermoclostridium stercorarium, UniProt L7VM99)", "T2 construct": "gene Cst_c07550; no signal peptide predicted; C-terminal His6 tag, pET-24c(+), E. coli BL21 Star; IMAC and heat step", "T2 sequence (L7VM99 entry or part of it)": "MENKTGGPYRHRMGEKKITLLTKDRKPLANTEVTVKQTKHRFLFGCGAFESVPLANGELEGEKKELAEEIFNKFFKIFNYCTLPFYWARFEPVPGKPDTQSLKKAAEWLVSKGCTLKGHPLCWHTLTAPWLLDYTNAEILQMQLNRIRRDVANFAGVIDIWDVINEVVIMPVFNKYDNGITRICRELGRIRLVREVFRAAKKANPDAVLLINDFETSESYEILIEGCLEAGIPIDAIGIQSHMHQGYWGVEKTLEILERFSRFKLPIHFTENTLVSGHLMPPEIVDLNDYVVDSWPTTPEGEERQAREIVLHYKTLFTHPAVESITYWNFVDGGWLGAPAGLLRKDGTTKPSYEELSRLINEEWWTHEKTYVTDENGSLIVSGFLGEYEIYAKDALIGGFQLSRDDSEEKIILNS", "assay": "HPAEC-PAD of hydrolysis products", "assay_type": "biochemical", "details": "20 mg/L oligosaccharide, 2 mg/L enzyme, overnight, 60 °C, pH 6.5"}},
  "data": [
    {"smiles": "OC1OC[C@@H](O[C@@H]2OC[C@@H](O[C@@H]3OC[C@@H](O[C@@H]4OC[C@@H](O[C@@H]5OC[C@@H](O)[C@H](O)[C@H]5O)[C@H](O)[C@H]4O)[C@H](O)[C@H]3O)[C@H](O)[C@H]2O)[C@H](O)[C@H]1O", "note": "(some centres unmarked) [X5, xylopentaose]", "values": [
      {"measurement": "HPAEC-PAD of hydrolysis products", "setting": "Xyn105F", "value": "Xyn105F was also active on xylopentaose, releasing xylose and xylobiose"},
      {"measurement": "HPAEC-PAD of hydrolysis products", "setting": "Xyn10D", "value": "All five xylanases degraded xylopentaose first to xylotriose and xylobiose"}
    ]}
  ]
}
